{
  "source": "patent US7745402B2",
  "about": "“Method of treating pancreatitis” (Lundbeck Inc., priority 2005, dated 2010)",
  "key": {"[1]": {"system": "HO-1", "experiment": "HO-1 knock-down in vivo by siRNA, immunoblot of peritoneal cells", "design": "species or system mice", "conditions": "siRNA 2 mg/kg i.p. 3×, hemin on intervening days", "procedure": "(§1) (A,B) Peritoneal cells were isolated from hemin-treated mice that were also injected intraperitoneally on alternate days with saline (−), HO-1 siRNA (construct #1 and #2), or scramble control (Sc) siRNA. The peritoneal cells were then used to examine HO-1 and HO-2 levels by immunoblotting. (C,D) Peritoneal cells were harvested from hemin/construct #2 HO-1 siRNA or hemin/scrambled siRNA injected mice then transferred into naive recipient littermates followed by immediate initiation of CDD feeding. At 2.5 d of CDD feeding, pancreata were collected for histologic scoring. Data for histology score are presented as mean±SD (n=5-6/group), and are 6.4±1.7 (scrambled) and 12.7±4.5 (HO-1 siRNA). (E) Pancreata from panels C,D were double stained using antibodies to F4/80 and HO-1 (scale bar=20 μm).\nHO-1 siRNA and hemin pretreated cell transfer. Mice were injected i.p. every other day (3 total injections) with either saline or with two HO-1 siRNA constructs (2 mg/kg body weight), or with a scrambled siRNA sequence. Hemin was injected in the intervening days (an additional 3 injections). After 7 days, peritoneal cells were harvested and analyzed by immunoblotting using antibodies to HO-1/2. […] The siRNAs were synthesized by Dharmacon Research Inc. (Lafayette, Colo.) and tested previously. Zhang, X., Shan, P., Jiang, D., Noble, P. W., Abraham, N. G., Kappas, A., and Lee, P. J. 2004. […]"}, "[2]": {"system": "CDD-induced pancreatitis", "experiment": "Transfer of hemin/siRNA pretreated peritoneal cells into CDD-fed mice, histologic scoring", "type": "in vivo", "conditions": "recipients of peritoneal cells from hemin + siRNA injected mice; 2.5 d CDD; mean±SD, n=5-6/group", "procedure": "as §1, with “(E) Pancreata from panels C,D were double stained using antibodies to F4/80 and HO-1 (scale bar=20 μm).” left out\nHemin pretreated peritoneal cell transfer into CDD-fed mice. […] Mice were sacrificed after 2.5 d of CDD feeding, followed by isolation of the pancreata.(for histological and fluorescence staining) and blood. […] The severity of pancreatitis was scored using established histological criteria that assigned individual numerical scores (1=mild, 2=moderate, 3=severe) to edema, inflammation, hemorrhage; and alternate scores for parenchymal necrosis (3=focal, 5=sublobular, and 7=lobular). […]\nHO-1 siRNA and hemin pretreated cell transfer. […] After 7 days, peritoneal cells were harvested and analyzed by immunoblotting using antibodies to HO-1/2. […]"}},
  "note": "d = 2'-deoxy (DNA); r = 2'-OH (RNA)",
  "data": [
    {"substance": "HO-1 siRNA: HO-1 siRNA construct #2: 5′-GCCACACAGCACUAUGUAAdTdT-3′ (sense), 5′-UUACAUAGUGCUGUGUGGCdTdT-3′ (antisense) (sense GCCACACAGCACUAUGUAATT; antisense UUACAUAGUGCUGUGUGGCTT; chemistry not fully specified)", "values": [
      {"measurement": "HO-1 level in peritoneal cells", "setting": "[1]", "value": "significant inhibition of HO-1"},
      {"measurement": "histology score", "setting": "[2]", "value": "12.7±4.5"}
    ]},
    {"substance": "scrambled: nonspecific siRNA scrambled duplex: 5′-GCGCGCUUUGUAGGAUUCGdTdT-3′ (sense), 5′-CGAAUCCUACAAAGCGCGCdTdT-3′ (antisense) (sense GCGCGCUUUGUAGGAUUCGTT; antisense CGAAUCCUACAAAGCGCGCTT; sugars from the 5' end r19 d2, backbone not given here)", "values": [
      {"measurement": "histology score", "setting": "[2]", "value": "6.4±1.7"}
    ]}
  ]
}
